Laboratory results reported in patent US10745735B2 (priority 2013, dated 2020).

Legend:
[1] = system: verotoxin producing E. coli (VTEC) cells; type: cell-based
L. innocua = test: Capture of HPG-labeled, biotin-azide reacted L. innocua on streptavidin-coated magnetic beads; type: cell-based, Listeria innocua; conditions: biotin-azide 100 μM, M280 Dynabeads 1 hour
Source text: (§1) FIG. 6: Capture via unnatural amino acid metabolic labeling of live gram negative (E. coli) and gram positive (L. innocua) bacteria.
(§2) E. coli and L. innocua cells metabolically labeled by HPG were further investigated to determine if they could be captured on a surface via the incorporated amino acid analogue.

K12 E. coli = test: Immunocapture with anti-E. coli antibody beads and HPG metabolic labeling of K12 E. coli; type: cell-based; conditions: 30 minutes in M9 media, anti-E. coli antibody beads, Alexa488-azide
Description: FIG. 11: Metabolic label incorporation, immunocapture and fluorescence identification of live K12 strain E. coli. […] M280 streptavidin-coated magnetic beads treated with PBS (“Untreated”) or PBS containing biotin-tagged Anti-E. coli antibody were then added to the culture for 1 hour before the beads were washed in PBS and reacted with Alexa488-azide to fluorescently label surface proteins. Fluorescence levels are adjusted above background detected for cells grown in the presence of methionine.
Metabolic labeling is compatible with strain-specific immunocapture using magnetic beads coated with antibodies directed to specific bacteria. This method has the potential to concentrate specific strains of bacteria from food or water samples, while simultaneously allowing bacteria to acquire the functionalized biomolecular precursor and incorporate it in target biomolecules. Captured bacteria are then identified as living or dead by a subsequent bioorthogonal reaction and detection by fluorescence microscopy. […] M280 magnetic beads treated with PBS or biotin-tagged anti-E. coli antibody were co-incubated with the E. coli. Bacteria/bead aggregates were washed in PBS, then reacted with Alexa488-azide to fluorescently identify living bacteria captured on the M280 magnetic beads.

BL21 E. coli [2] = test: Capture of HPG-labeled, biotin-azide reacted E. coli on streptavidin-coated magnetic beads; type: cell-based; conditions: biotin-azide 100 μM, M280 Dynabeads 1 hour
Source text: as §1, §2

[3] = system: Listeria innocua strains HPB 34 and 118; test: Metabolic labeling of Listeria innocua with HPG, Alexa488-azide, fluorescence microscopy; type: cell-based; conditions: HPG 100 μg/ml, HTM minimal medium, 16 h at 30° C.
Description: In addition to gram negative E. coli strains, gram positive Listeria strains were investigated to probe the diversity of bacteria susceptible to this labeling strategy. Two strains of Listeria innocua were cultured in HTM minimal medium containing the methionine biosynthesis inhibition amino acids, in the presence of methionine (100 μg/ml) or HPG (100 μg/ml) for 16 h at 30° C., then reacted with Alexa488-azide as described earlier.

BL21 E. coli [4] = test: Dual metabolic labeling (HPG and KDO-azide) of BL21 E. coli, fluorescence and bead capture; type: cell-based; conditions: HPG and KDO-azide together
Description: FIG. 10: Dual metabolic label incorporation, fluorescence labeling and capture of live lab strain E. coli. […] The cells were first reacted with biotin-azide to biotinylate surface proteins, then reacted with Alexa488-alkyne to fluorescently label LPS molecules. Surface biotinylation was either fluorescently detected after incubation with Cy3-streptavidin (top panels), or bacteria were captured after incubation with streptavidin-coated magnetic beads (bottom panels). Fluorescence levels are adjusted above background detected for cells grown in the presence of KDO and methionine.
Beyond identification of living cells, this method has the potential to discriminate between gram positive and gram negative bacteria as functionalized KDO will only be incorporated into LPS of gram negative cells, whereas HPG should not discriminate between the two. This method may also be used to capture living bacteria via incorporation of HPG, and fluorescent identification of gram negative strains via incorporation of KDO-azide. […] Methionine biosynthesis was then inhibited and either methionine or HPG were added to the cultures and incubated for 16 hours. Cells were reacted with biotin-azide to label surface proteins containing HPG, then reacted with Alexa488-alkyne to fluorescently label LPS containing KDO-azide. […]

[5] = system: VTEC strain of serotype O45:H2; test: Metabolic labeling of VTEC O45:H2 with KDO-alkyne, Alexa488-azide, fluorescence microscopy; type: cell-based, E. coli; conditions: overnight culture
Source text: Metabolic labeling of VTEC was also investigated to determine if this labeling strategy could be applied to the detection of live pathogenic bacteria. […] Therefore, targeting LPS of bacteria with a KDO analogue can also be used to identify contamination by living pathogenic strains of E. coli.

| SMILES | contact time after which metabolic label incorporation is detected [1] [min] | fluorescence labeling after reaction with Alexa488-azide [1] | capture on streptavidin coated beads via incorporated HPG (L. innocua) | identification of captured bacteria as living by fluorescence (K12 E. coli) | capture on streptavidin coated beads via incorporated HPG (BL21 E. coli [2]) | fluorescence labeling after reaction with Alexa488-azide [3] | dual metabolic label incorporation (BL21 E. coli [4]) | incorporation into LPS molecules [5] |
| --- | --- | --- | --- | --- | --- | --- | --- | --- |
| C#CCCC(N)C(=O)O (stereo not drawn) [HPG, homopropargylglycine] | 30 | fluorescently labeled | multiple E. coli and L. innocua cells bound to the streptavidin coated beads | identified as being alive | multiple E. coli and L. innocua cells bound to the streptavidin coated beads | labeled efficiently | capable of incorporating both | – |
| C#CCCC(=O)NC[C@@H](O)C1OC(O)(C(=O)O)C[C@@H](O)[C@H]1O (stereo partly drawn) [KDO-alkyne] | – | – | – | – | – | – | – | capable of incorporating KDO-alkyne into LPS molecules |
| [N-]=[N+]=NC[C@@H](O)C1OC(O)(C(=O)O)C[C@@H](O)[C@H]1O (stereo partly drawn) [KDO-azide] | – | – | – | – | – | – | capable of incorporating both | – |
